According to ChEMBL document CHEMBL1201862, “PubChem BioAssay data set” (2004):
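Tested at 5 concentrations; 48 h exposure; 96-well plates; endpoints linearly interpolated, else capped at highest concentration. GI50: concentration for 50% inhibition of growth.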 The source made the active and inactive calls. Rule as the data show it: active = GI50 up to about 1.1 µM and inactive = higher.

Tests used:
Test in all cases: growth of human tumour cells (NCI), 48 h
UACC-62 = system: UACC-62
SN12C = system: SN12C
COLO 205 = system: COLO 205
IGROV-1 = system: IGROV-1
SNB-19 = system: SNB-19
KM-20L2 = system: KM-20L2
LXFL 529 = system: LXFL 529
SR = system: SR
NCI-H23 = system: NCI-H23
DMS-114 = system: DMS-114
EKVX = system: EKVX
HT-29 = system: HT-29
TK-10 = system: TK-10
NCI-H226 = system: NCI-H226

Measured: GI50

COc1ccc(-c2cc(O)c3cc(OC)ccc3n2)cc1
inactive: UACC-62 > 100 µM | SN12C > 100 µM | COLO 205 > 100 µM | IGROV-1 > 100 µM | SNB-19 > 100 µM | KM-20L2 > 100 µM | LXFL 529 > 100 µM | SR > 100 µM | NCI-H23 > 100 µM | DMS-114 > 100 µM | EKVX > 100 µM | HT-29 > 100 µM | TK-10 > 100 µM | NCI-H226 > 100 µM

COC(=O)C(=O)C(C(=O)C(=O)Nc1ccc([N+](=O)[O-])cc1C#N)c1nc2ccc([N+](=O)[O-])cc2nc1O (centres undefined)
inactive: UACC-62 > 100 µM | SN12C > 100 µM | COLO 205 > 100 µM | SNB-19 > 100 µM | KM-20L2 > 100 µM | LXFL 529 > 100 µM | SR 96.8 µM | DMS-114 > 100 µM | EKVX 35.6 µM | HT-29 > 100 µM | TK-10 > 100 µM | NCI-H226 57.5 µM

CC1=C(C(=O)CC(=O)C(=O)Nc2ccccc2C(F)(F)F)Sc2ccccc2N1
inactive: UACC-62 38.5 µM | SN12C 56.4 µM | COLO 205 > 100 µM | IGROV-1 44 µM | SNB-19 35.1 µM | KM-20L2 > 100 µM | LXFL 529 35.7 µM | NCI-H23 22.1 µM | DMS-114 32.6 µM | EKVX 64.7 µM | HT-29 > 100 µM | TK-10 > 100 µM | NCI-H226 15.6 µM

Nc1nc(-c2ccco2)cc(-c2ccc(CO)o2)n1
inactive: UACC-62 > 100 µM | SN12C > 100 µM | COLO 205 > 100 µM | IGROV-1 > 100 µM | SNB-19 65.5 µM | KM-20L2 > 100 µM | LXFL 529 > 100 µM | SR > 100 µM | NCI-H23 > 100 µM | DMS-114 > 100 µM | EKVX > 100 µM | HT-29 > 100 µM | TK-10 > 100 µM | NCI-H226 54.3 µM

CCOC(=O)C1Cc2[nH]c3ccccc3c2C(C)C1C (centres undefined)
inactive: UACC-62 10.8 µM | SN12C 18.4 µM | COLO 205 17.3 µM | IGROV-1 15.3 µM | SNB-19 17.7 µM | KM-20L2 16.8 µM | LXFL 529 19.9 µM | SR 16.6 µM | NCI-H23 13.5 µM | DMS-114 22.3 µM | EKVX 10.8 µM | TK-10 30 µM | NCI-H226 11.6 µM

CC12C/C(=C\c3ccccc3)C(=O)C3C1CCCC32
inactive: UACC-62 > 100 µM | SN12C > 100 µM | COLO 205 87.1 µM | IGROV-1 > 100 µM | SNB-19 > 100 µM | KM-20L2 63.1 µM | LXFL 529 56.9 µM | SR 36.8 µM | NCI-H23 > 100 µM | DMS-114 41.6 µM | HT-29 31.6 µM | TK-10 > 100 µM | NCI-H226 > 100 µM

CCOC(=O)c1ccc(/N=N/c2cc(C(=O)OCC)ccc2O)cc1
inactive: UACC-62 > 100 µM | SN12C > 100 µM | COLO 205 > 100 µM | IGROV-1 > 100 µM | KM-20L2 > 100 µM | LXFL 529 > 100 µM | NCI-H23 > 100 µM | DMS-114 > 100 µM | EKVX 20.1 µM | HT-29 43.6 µM | TK-10 > 100 µM

O=C(CC1(O)C(=O)Nc2c(Cl)cc(Cl)cc21)c1cccc2ccccc12 (centres undefined)
inactive: UACC-62 14.9 µM | SN12C 18.4 µM | COLO 205 17 µM | IGROV-1 18.6 µM | SNB-19 14.1 µM | KM-20L2 18.9 µM | LXFL 529 15.3 µM | SR 16.9 µM | NCI-H23 16.9 µM | DMS-114 17.9 µM | EKVX 16 µM | HT-29 19.6 µM | TK-10 14.1 µM | NCI-H226 16.5 µM

O=c1c2cc(Br)cc(Br)c2nc(CCCl)n1CCO
inactive: UACC-62 60.8 µM | SN12C 97.5 µM | COLO 205 > 100 µM | IGROV-1 75.9 µM | KM-20L2 > 100 µM | LXFL 529 77.6 µM | NCI-H23 49.9 µM | DMS-114 42.4 µM | EKVX 73.8 µM | HT-29 > 100 µM | TK-10 > 100 µM | NCI-H226 39 µM

CC(=O)OCCOCNC(=S)N/N=C/c1ccc(Br)s1
inactive: UACC-62 > 100 µM | SN12C > 100 µM | COLO 205 > 100 µM | IGROV-1 > 100 µM | SNB-19 > 100 µM | KM-20L2 > 100 µM | LXFL 529 > 70.3 µM | NCI-H23 > 100 µM | DMS-114 33.3 µM | EKVX > 36.2 µM | HT-29 > 100 µM | TK-10 > 100 µM | NCI-H226 > 100 µM
